These results are taken from patent US9686990B2, “Spiroindolinepiperidine derivatives” (priority 2002, dated 2017).

Holding throughout (assay type): in vivo
Assay [1] concerns Heliothis virescens (Tobacco Budworm). The assay can be described thus: Heliothis virescens egg/larva test on artificial diet. The conditions noted are these: 96 h, read-out: control of Heliothis virescens.
The subject of assay [2] is Plutella xylostella (Diamond Back Moth). The assay can be described thus: Plutella xylostella larva test on artificial diet. The conditions noted are these: 120 h, 18.2 ppm by pipetting on artificial diet, L2 larvae, 5 days incubation, larval mortality, antifeedant, growth regulation. As to the method:
(§1) Test against were performed as follows:
24-well microtiter plate (MTP) with artificial diet was treated with test solutions at an application rate of 18.2 ppm by pipetting. After drying, the MTP's were infested with larvae (L2) (10-15 per well). After an incubation period of 5 days, samples were checked for larval mortality, antifeedant and growth regulation.

Assay [3] relates to Aedes aegypti (Yellow Fever Mosquito). The assay is described as follows: whole plant or invertebrate. Particulars: 48 h, L2 larvae with nutrition mixture, 2 days, mortality and growth inhibition. As to the method: as §1
Bean leaf discs on agar in 24-well microtiter plates wer sprayed with test solutions at an application rate of 200 ppm. After drying, the leaf discs are infested with mite populations of mixed ages. 8 days later, discs are checked for egg mortality, larval mortality, and adult mortality. […] Aedes aegypti (Yellow Fever Mosquito): 10-15 Aedes larvae (L2) together with a nutrition mixture are placed in 96-well microtiter plates. Test solutions at an application rate of 2 ppm are pipetted into the wells. 2 days later, insects were checked for mortality and growth inhibition.

Assay [4] deals with Spodoptera littoralis (Egyptian Cotton Leafworm). The assay is described as follows: Spodoptera littoralis cotton leaf disc spray test. Particulars: foliar, 72 h, read-out: control of Spodoptera littoralis. As to the method:
as §1
Spodoptera littoralis (Egyptian Cotton Leafworm)

Molecules are shown by their SMILES.

Turning to `O=C(c1ccncc1)N1CC2(CCN(C/C=C/c3ccc(Cl)cc3)CC2)c2cc(Cl)ccc21` [VI-22, 1-(Pyridin-4-yl)-carbonyl-5-chloro-1′-[trans-3-(4-chlorophenyl)allyl]spiro[indoline-3,4′-piperidine]], the pest or weed control at 200 ppm in assay [1] and in assay [4] was at least 80% throughout. Also, in assay [2], the pest or weed control at 18.2 ppm was at least 80%. Moreover, in assay [3], the pest or weed control at 2 ppm was at least 80%.
For `O=C(c1ccnc(Cl)c1)N1CC2(CCN(C/C(F)=C/c3ccc(Cl)cc3)CC2)c2cc(Cl)ccc21` [XXX-113, 1-(2-chloropyridin-4-yl)carbonyl-5-chloro-1′-[(Z)-3-(4-chlorophenyl)-2-fluoro-allyl]spiro[indolin-3,4′-piperidine]], the pest or weed control at 200 ppm in assay [1] and in assay [4] was at least 80% each time. For the same compound, in assay [2], the pest or weed control at 18.2 ppm was at least 80%. In addition, the pest or weed control at 2 ppm in assay [3] was at least 80%.
`Cc1ccc2c(c1)C1(CCN(C/C=C/c3ccc(Cl)cc3)CC1)CN2C(=O)c1ccc(C#N)cc1` [XIX-202, 1-(4-cyanobenzoyl)-5-methyl-1′-[trans-3-(4-chlorophenyl)allyl]spiro[indoline-3,4′-piperidine]]: the pest or weed control at 200 ppm in assay [1] and in assay [4] was at least 80% each time.
`Clc1ccc(/C=C/CN2CCC3(CC2)CN(c2cnccn2)c2ccc(Cl)cc23)cc1` [XIV-22, 1-(2-Pyrazinyl)-5-chloro-1′-[trans-3-(4-chlorophenyl)allyl]spiro[indoline-3,4′-piperidine]]: the pest or weed control at 200 ppm in assay [1] and in assay [4] was at least 80% throughout. In assay [2], the pest or weed control at 18.2 ppm is at least 80%. Besides, the pest or weed control at 2 ppm in assay [3] is at least 80%.
For the compound `O=C(c1ccnc(Cl)c1)N1CC2(CCN(C/C=C(\Cl)c3ccc(Cl)cc3)CC2)c2cc(Cl)ccc21` [XXX-115, 1-(2-chloropyridin-4-yl)carbonyl-5-chloro-1′-[(Z)-3-(4-chlorophenyl)-3-chloro-allyl]spiro[indolin-3,4′-piperidine]], the pest or weed control at 200 ppm in assay [1] was at least 80%.
For `O=C(c1ccnc(Cl)c1)N1CC2(CCN(C/C=C/c3ccc(C(F)(F)F)cc3)CC2)c2cc(Cl)ccc21` [XXX-51, 1-(2-chloropyridin-4-yl)carbonyl-5-chloro-1′-[(E)-3-(4-trifluoromethyl-phenyl)allyl]spiro[indolin-3,4′-piperidine]], in assay [2], the pest or weed control at 18.2 ppm is at least 80%. Moreover, the pest or weed control at 2 ppm in assay [3] is at least 80%. For the same compound, the pest or weed control at 200 ppm in assay [4] was at least 80%.
Take `N#Cc1ccc2c(c1)C1(CCN(C/C=C/c3ccc(Cl)cc3)CC1)CN2C(=O)c1ccnc(Cl)c1` [Compound I-212, 5-Cyano-1-(2-chloropyridin-4-yl)carbonyl-1′-[trans-3-(4-chlorophenyl)allyl]spiro[indoline-3,4′-piperidine]]: the pest or weed control at 200 ppm in assay [1] and in assay [4] was at least 80% each time. Moreover, in assay [2], the pest or weed control at 18.2 ppm is at least 80%. Further, the pest or weed control at 2 ppm in assay [3] was at least 80%.
In the case of `NN1CC2(CCN(C/C=C/c3ccc(Cl)cc3)CC2)c2cc(F)ccc21` [XXX-94], in assay [1], the pest or weed control at 200 ppm is at least 80%. Also, in assay [3], the pest or weed control at 2 ppm was at least 80%.
For the compound `O=C(c1ccnc(Cl)c1)N1CC2(CCN(C/C=C/c3ccccc3)CC2)c2ccccc21` [Compound I-1, 1-(2-Chloropyridin-4-yl)carbonyl-1′-[trans-3-phenylallyl]spiro[indoline-3,4′-piperidine]], the pest or weed control at 200 ppm in assay [1] is at least 80%. This compound yielded a pest or weed control at 18.2 ppm in assay [2] of at least 80%.
For `C/C(=N/N1CC2(CCN(C/C=C/c3ccc(Cl)cc3)CC2)c2cc(Cl)ccc21)N(C)C` [XXX-102, N′-[5-chloro-1′-[trans-3-(4-chlorophenyl)allyl]spiro[indoline-3,4′-piperidine]-1-yl]-N,N-dimethylacetamidine], the pest or weed control at 2 ppm in assay [3] is at least 80%.
`CC(=O)N1CC2(CCN(C/C=C/c3ccc(Cl)cc3)CC2)c2cc(Cl)ccc21` [Compound V-22, 1-Acetyl-5-chloro-1′-[trans-3-(4-chlorophenyl)allyl]spiro[indoline-3,4′-piperidine]]: the pest or weed control at 200 ppm in assay [1] and in assay [4] was at least 80% in each case. The pest or weed control at 18.2 ppm in assay [2] is at least 80%. Further, in assay [3], the pest or weed control at 2 ppm was at least 80%.
Regarding `O=C(c1ccnc(Cl)c1)N1CC2(CCN(C/C=C(\F)c3ccc(Cl)cc3)CC2)c2cc(Cl)ccc21` [XXX-90, 1-(2-chloropyridin-4-yl)carbonyl-5-chloro-1′-[(Z)-3-(4-chlorophenyl)-3-fluoro-allyl]spiro[indolin-3,4′-piperidine]], the pest or weed control at 200 ppm in assay [1] is at least 80%. The same compound had a pest or weed control at 18.2 ppm in assay [2] of at least 80%. Further, the pest or weed control at 2 ppm in assay [3] is at least 80%.
As to `COCCNC(=O)N1CC2(CCN(C/C=C/c3ccc(Cl)cc3)CC2)c2cc(F)ccc21` [XXX-105], the pest or weed control at 200 ppm in assay [1] and in assay [4] was at least 80% throughout. Besides, the pest or weed control at 18.2 ppm in assay [2] was at least 80%. The pest or weed control at 2 ppm in assay [3] was at least 80%.
As for `CSc1ccc(/C=C\CN2CCC3(CC2)CN(C(=O)c2ccnc(Cl)c2)c2ccc(Cl)cc23)cc1` [XXX-72, 1-(2-chloropyridin-4-yl)carbonyl-5-chloro-1′-[(Z)-3-(4-methylthiophenyl)allyl]spiro[indolin-3,4′-piperidine]], the pest or weed control at 200 ppm in assay [1] was at least 80%.
